Source: ChEMBL document CHEMBL2321833, “Design and optimization of selective protein kinase C θ (PKCθ) inhibitors for the treatment of autoimmune diseases” (J Med Chem, 2013)

Tests used:
[1] = target: T1, Protein kinase C theta type (Homo sapiens, UniProt Q04759); assay: Inhibition of full-length recombinant PKC theta (unknown origin) using ERMRPRKRQGSVRRRV as substrate after 60 mins by scintillation counting analysis in presence of [gamma-33P]ATP
[2] = target: T1, Protein kinase C theta type; assay: Inhibition of PKC-theta in human PBMC cells assessed as inhibition of IL-2 after 24 hrs by bead-based FLISA assay; format: cell-based
[3] = target: Protein kinase C delta type (Homo sapiens, UniProt Q05655); assay: Inhibition of PKC delta (unknown origin) using ERMRPRKRQGSVRRRV as substrate after 15 mins by spectrophotometry in presence of ATP
Sequence of Protein kinase C delta type (Q05655 whole entry): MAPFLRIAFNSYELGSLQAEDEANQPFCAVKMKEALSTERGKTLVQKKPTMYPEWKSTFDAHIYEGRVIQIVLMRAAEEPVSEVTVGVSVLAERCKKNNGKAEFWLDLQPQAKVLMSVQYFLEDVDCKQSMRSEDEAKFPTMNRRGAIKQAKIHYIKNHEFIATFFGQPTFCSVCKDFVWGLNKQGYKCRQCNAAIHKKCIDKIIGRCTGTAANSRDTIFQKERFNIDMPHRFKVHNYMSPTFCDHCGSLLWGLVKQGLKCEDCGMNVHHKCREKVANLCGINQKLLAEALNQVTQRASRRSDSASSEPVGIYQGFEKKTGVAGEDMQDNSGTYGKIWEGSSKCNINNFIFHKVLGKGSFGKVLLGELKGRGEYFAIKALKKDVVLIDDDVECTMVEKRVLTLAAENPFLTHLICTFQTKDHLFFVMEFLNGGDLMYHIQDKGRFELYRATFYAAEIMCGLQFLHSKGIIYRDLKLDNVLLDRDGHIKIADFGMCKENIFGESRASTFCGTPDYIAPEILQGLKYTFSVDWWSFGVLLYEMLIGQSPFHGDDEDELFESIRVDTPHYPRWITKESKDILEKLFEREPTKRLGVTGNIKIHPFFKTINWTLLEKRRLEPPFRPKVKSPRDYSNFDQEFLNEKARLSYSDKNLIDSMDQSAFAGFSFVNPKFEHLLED

[4] = target: Protein kinase C alpha type (Homo sapiens, UniProt P17252); assay: Inhibition of PKC alpha (unknown origin) using RRRRRKGSFKRKA as substrate after 15 mins by spectrophotometry in presence of ATP
[5] = Clearance in rat at 3 mg/kg, iv and 10 mg/kg, po; format: ADME, organism-based; conditions: in vivo
[6] = Half life in rat at 3 mg/kg, iv and 10 mg/kg, po; format: ADME, organism-based; conditions: in vivo
Blood = assay: Inhibition of PKC theta in human whole blood assessed as IL-2 level after 1 hr by ELISA; format: functional, tissue-based
[7] = Oral bioavailability in rat at 10 mg/kg; format: ADME, organism-based; conditions: in vivo
[8] = target: Mitogen-activated protein kinase 3 (Homo sapiens, UniProt P27361); assay: Inhibition of Erk-1 (unknown origin)
Sequence of Mitogen-activated protein kinase 3 (P27361 whole entry): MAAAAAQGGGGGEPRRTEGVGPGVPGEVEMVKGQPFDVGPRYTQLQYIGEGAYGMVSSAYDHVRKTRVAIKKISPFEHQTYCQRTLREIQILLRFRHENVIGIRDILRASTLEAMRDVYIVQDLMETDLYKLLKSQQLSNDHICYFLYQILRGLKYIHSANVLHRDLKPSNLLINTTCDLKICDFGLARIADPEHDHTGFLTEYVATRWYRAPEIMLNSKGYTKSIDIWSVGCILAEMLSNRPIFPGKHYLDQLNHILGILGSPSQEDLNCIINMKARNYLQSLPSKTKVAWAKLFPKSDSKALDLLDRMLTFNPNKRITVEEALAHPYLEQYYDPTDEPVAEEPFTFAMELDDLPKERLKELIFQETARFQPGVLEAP

[9] = target: RAF proto-oncogene serine/threonine-protein kinase (Homo sapiens, UniProt P04049); assay: Inhibition of c-Raf (unknown origin)
[10] = target: T2, Protein kinase C beta type (Homo sapiens, UniProt P05771); assay: Inhibition of PKC beta2 (unknown origin)
T2 sequence (P05771 whole entry): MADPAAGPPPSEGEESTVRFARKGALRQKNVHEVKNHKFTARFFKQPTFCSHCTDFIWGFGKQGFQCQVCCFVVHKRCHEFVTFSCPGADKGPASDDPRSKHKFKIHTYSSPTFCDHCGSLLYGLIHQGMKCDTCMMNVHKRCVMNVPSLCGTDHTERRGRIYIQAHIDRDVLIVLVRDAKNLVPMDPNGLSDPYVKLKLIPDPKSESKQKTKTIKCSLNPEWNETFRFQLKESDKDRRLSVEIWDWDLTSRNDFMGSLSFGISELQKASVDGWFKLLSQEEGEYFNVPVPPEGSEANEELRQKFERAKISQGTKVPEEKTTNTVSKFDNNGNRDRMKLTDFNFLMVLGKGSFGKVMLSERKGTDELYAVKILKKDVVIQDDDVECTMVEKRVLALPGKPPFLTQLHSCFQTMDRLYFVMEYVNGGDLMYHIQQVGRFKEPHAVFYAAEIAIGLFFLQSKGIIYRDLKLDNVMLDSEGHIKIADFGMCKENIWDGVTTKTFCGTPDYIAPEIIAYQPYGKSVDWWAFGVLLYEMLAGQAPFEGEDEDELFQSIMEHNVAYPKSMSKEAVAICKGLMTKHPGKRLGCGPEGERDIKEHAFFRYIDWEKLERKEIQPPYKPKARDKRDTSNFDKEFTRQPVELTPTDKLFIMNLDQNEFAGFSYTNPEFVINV

[11] = target: Protein kinase C gamma type (Homo sapiens, UniProt P05129); assay: Inhibition of PKC gamma (unknown origin)
[12] = target: Tyrosine-protein kinase Lyn (Homo sapiens, UniProt P07948); assay: Inhibition of Lyn (unknown origin)
[13] = target: T3, Protein kinase C epsilon type (Homo sapiens, UniProt Q02156); assay: Inhibition of PKC epsilon (unknown origin)
T3 sequence (Q02156 whole entry): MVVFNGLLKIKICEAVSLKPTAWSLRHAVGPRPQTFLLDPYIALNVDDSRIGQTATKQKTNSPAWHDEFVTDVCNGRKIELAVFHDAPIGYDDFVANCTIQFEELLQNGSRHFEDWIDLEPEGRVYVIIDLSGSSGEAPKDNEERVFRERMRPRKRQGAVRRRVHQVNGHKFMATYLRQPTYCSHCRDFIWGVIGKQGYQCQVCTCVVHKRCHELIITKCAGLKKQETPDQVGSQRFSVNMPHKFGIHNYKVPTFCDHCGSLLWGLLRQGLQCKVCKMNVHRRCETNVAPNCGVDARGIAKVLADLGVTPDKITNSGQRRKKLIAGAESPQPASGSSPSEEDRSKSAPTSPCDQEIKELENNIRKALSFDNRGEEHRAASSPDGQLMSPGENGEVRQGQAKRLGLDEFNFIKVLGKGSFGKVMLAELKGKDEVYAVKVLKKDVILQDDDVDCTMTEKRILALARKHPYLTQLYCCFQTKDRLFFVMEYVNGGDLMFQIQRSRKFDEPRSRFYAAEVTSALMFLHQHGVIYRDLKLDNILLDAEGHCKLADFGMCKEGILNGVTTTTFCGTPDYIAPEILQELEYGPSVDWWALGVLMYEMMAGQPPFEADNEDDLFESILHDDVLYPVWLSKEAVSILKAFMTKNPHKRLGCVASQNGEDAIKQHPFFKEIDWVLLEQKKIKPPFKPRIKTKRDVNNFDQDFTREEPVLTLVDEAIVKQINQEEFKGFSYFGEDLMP

[14] = target: T4, Protein kinase C zeta type (Homo sapiens, UniProt Q05513); assay: Inhibition of PKC zeta (unknown origin)
T4 sequence (Q05513 whole entry): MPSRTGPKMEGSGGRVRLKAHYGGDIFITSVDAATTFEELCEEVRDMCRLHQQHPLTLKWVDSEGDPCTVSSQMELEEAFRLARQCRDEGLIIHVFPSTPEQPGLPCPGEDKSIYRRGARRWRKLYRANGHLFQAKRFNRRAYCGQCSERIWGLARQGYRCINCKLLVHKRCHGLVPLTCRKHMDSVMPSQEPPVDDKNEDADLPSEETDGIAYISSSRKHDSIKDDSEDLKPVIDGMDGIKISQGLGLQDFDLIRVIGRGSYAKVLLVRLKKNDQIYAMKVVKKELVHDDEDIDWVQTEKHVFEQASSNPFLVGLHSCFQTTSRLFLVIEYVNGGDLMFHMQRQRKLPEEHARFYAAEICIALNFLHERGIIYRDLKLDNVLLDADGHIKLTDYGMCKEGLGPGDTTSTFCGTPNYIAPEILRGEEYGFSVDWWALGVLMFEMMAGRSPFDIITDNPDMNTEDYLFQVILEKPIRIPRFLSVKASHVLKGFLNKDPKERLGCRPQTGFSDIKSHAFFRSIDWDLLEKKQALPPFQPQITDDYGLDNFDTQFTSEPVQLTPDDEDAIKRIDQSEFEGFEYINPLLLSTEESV

[15] = target: Tyrosine-protein kinase Lck (Homo sapiens, UniProt P06239); assay: Inhibition of Lck (unknown origin)
Sequence of Tyrosine-protein kinase Lck (P06239 whole entry): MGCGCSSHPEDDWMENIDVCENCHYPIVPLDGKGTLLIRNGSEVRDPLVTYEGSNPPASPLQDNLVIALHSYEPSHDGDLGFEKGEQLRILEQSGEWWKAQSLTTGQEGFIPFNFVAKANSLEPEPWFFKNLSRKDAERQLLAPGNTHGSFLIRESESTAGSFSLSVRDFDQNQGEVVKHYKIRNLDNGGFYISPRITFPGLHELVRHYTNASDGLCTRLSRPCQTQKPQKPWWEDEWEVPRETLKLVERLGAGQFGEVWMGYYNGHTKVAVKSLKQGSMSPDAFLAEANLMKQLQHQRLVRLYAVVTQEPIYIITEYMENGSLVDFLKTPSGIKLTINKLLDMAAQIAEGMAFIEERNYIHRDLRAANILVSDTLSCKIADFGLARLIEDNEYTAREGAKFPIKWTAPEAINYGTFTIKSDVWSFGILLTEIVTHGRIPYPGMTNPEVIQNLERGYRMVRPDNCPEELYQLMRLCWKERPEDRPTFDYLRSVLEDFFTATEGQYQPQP

[16] = target: T5, Tyrosine-protein kinase ITK/TSK (Homo sapiens, UniProt Q08881); assay: Inhibition of Itk (unknown origin)
T5 sequence (Q08881 whole entry): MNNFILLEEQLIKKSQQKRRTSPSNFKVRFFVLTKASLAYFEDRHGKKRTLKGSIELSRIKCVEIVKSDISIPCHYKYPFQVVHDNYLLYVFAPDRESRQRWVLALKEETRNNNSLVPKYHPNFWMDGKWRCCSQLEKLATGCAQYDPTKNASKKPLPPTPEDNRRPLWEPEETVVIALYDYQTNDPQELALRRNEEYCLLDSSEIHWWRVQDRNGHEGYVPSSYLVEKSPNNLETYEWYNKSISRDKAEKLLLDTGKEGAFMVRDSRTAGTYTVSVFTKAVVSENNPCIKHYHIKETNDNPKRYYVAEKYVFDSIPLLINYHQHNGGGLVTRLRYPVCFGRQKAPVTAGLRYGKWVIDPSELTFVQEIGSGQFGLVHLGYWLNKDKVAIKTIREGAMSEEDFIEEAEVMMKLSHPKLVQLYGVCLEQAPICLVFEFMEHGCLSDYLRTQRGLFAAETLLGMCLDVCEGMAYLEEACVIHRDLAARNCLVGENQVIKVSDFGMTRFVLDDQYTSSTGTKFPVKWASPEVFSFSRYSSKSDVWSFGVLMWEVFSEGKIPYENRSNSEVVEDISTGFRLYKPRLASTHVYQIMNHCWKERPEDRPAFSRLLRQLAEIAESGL

[17] = Cmax in Balb/c mouse at 25 mg/kg, po; format: ADME, organism-based; set-up: dose 25 mg/kg, route oral; conditions: in vivo
[18] = target: T6, Tyrosine-protein kinase ZAP-70 (Homo sapiens, UniProt P43403); assay: Inhibition of Zap70 (unknown origin)
T6 sequence (P43403 whole entry): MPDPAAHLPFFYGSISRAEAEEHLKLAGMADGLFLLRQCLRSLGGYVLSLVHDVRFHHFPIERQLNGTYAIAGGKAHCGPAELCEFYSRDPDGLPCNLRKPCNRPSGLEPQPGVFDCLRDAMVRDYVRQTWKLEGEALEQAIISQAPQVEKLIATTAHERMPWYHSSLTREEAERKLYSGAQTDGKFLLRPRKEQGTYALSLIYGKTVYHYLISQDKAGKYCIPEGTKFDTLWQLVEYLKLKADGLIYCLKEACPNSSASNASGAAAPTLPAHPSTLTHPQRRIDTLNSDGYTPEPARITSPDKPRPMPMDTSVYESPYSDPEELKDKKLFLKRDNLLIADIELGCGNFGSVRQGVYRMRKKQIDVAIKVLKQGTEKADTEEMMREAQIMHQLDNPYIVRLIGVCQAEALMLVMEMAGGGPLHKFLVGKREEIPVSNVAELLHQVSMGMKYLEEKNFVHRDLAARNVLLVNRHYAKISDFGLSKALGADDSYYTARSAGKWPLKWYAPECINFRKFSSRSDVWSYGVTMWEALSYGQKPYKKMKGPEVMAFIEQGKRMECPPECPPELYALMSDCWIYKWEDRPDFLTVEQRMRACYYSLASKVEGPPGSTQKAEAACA

[19] = target: Protein kinase C eta type (Homo sapiens, UniProt P24723); assay: Inhibition of PKC eta (unknown origin)
Sequence of Protein kinase C eta type (P24723 whole entry): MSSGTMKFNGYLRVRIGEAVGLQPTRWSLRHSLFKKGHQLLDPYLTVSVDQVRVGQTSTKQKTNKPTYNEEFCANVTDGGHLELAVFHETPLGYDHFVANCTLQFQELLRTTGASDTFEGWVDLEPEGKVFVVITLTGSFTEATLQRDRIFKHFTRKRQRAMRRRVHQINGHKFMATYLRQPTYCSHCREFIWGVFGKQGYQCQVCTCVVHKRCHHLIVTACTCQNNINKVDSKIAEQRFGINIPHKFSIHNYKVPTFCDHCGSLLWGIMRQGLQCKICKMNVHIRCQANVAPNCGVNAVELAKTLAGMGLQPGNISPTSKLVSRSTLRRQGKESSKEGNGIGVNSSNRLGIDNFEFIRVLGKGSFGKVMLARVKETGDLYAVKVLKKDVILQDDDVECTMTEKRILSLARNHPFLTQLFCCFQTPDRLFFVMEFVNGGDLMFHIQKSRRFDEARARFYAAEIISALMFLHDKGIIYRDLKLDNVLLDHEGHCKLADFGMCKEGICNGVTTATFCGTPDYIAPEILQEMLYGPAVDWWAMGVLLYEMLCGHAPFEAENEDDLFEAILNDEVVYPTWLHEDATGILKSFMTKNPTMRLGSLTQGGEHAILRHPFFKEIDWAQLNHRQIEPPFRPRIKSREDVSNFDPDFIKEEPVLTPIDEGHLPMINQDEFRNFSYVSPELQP

[20] = target: Tyrosine-protein kinase Fyn (Homo sapiens, UniProt P06241); assay: Inhibition of Fyn (unknown origin)
[21] = target: T7, Serine/threonine-protein kinase D1 (Homo sapiens, UniProt Q15139); assay: Inhibition of PKC mu (unknown origin)
T7 sequence (Q15139 whole entry): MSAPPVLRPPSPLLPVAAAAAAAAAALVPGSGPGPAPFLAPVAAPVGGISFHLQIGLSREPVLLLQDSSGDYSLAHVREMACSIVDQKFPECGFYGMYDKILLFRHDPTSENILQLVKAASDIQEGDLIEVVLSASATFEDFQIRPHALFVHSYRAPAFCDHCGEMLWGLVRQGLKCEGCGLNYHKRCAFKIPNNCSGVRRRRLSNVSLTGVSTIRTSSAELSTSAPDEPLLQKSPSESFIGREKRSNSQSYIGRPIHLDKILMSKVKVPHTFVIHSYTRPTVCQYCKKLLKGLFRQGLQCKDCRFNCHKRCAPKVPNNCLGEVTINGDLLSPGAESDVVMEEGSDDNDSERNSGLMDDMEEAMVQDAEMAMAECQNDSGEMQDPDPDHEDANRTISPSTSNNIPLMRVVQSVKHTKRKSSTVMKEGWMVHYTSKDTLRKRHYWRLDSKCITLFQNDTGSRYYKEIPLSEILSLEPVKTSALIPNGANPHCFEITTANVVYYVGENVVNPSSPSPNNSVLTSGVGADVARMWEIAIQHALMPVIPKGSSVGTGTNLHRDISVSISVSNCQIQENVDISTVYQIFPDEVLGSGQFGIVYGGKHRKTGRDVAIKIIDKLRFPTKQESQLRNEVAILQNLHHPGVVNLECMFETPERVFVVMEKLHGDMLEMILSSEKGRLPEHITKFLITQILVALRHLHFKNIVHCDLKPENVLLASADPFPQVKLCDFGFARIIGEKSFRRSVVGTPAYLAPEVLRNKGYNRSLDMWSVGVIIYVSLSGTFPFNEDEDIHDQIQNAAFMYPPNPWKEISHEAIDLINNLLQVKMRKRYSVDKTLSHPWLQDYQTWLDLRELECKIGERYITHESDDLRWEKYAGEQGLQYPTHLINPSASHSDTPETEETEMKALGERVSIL

[22] = target: T2, Protein kinase C beta type; assay: Inhibition of PKC beta1 (unknown origin)

T1 sequence (Q04759 whole entry): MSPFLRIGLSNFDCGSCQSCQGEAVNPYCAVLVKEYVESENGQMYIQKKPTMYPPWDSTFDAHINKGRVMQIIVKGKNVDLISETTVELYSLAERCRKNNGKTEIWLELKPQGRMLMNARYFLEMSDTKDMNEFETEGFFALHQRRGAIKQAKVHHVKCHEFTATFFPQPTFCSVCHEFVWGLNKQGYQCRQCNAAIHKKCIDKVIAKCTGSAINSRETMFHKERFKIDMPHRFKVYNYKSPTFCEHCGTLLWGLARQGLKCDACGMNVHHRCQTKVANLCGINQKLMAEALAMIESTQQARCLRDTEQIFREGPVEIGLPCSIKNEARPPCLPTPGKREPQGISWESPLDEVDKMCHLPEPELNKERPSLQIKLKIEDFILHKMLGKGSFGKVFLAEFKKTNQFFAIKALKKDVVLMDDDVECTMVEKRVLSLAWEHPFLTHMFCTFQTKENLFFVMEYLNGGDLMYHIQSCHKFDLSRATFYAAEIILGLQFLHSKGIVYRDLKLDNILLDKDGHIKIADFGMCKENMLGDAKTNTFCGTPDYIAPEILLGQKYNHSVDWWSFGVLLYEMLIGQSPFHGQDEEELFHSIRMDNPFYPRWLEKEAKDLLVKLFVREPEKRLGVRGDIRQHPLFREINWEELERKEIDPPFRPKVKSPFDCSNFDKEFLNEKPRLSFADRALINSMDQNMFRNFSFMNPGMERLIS

Compound | Ki [1] | IC50 [2] | Ki [3] | Ki [4] | also measured
CC(C)[C@@](C)(O)[C@@H]1CN(c2nc(-c3n[nH]c4ncccc34)c(F)cc2CO)CCN1 | 0.1 nM | 1 nM | < 10 nM | 205 nM | –
CC(C)C[C@H]1CN(c2ccc(F)c(-c3n[nH]c4ncccc34)n2)CCN1 | – | – | 358 nM | – | –
CC(C)[C@@](C)(O)[C@@H]1CN(c2ccc(F)c(-c3n[nH]c4ncccc34)n2)CCN1 | – | – | 57 nM | 549 nM | clearance [5]: 39 mL/min/kg; half-life [6]: 2.6 h; IC50 (Blood): 200 nM; bioavailability [7]: 36%
CC(C)[C@@](C)(O)[C@@H]1CN(c2ccc(Cl)c(-c3n[nH]c4ncccc34)n2)CCN1 | 21 nM | 170 nM | 547 nM | 1240 nM | –
CC(C)[C@@](C)(O)[C@@H]1CN(c2nc(-c3n[nH]c4ncccc34)c(F)cc2Cl)CCN1 | 0.08 nM | 11 nM | 16 nM | 356 nM | Ki [8]: > 1000 nM; Ki [9]: > 1000 nM; Ki [10]: 393 nM; clearance [5]: 7 mL/min/kg; Ki [11]: 725 nM; Ki [12]: > 1000 nM; half-life [6]: 4.7 h; Ki [13]: 1 nM; Ki [14]: > 5000 nM; Ki [15]: > 1000 nM; Ki [16]: > 1000 nM; Cmax [17]: 700 ng/mL; Ki [18]: > 1000 nM; Ki [19]: 3.5 nM; IC50 (Blood): 70 nM; bioavailability [7]: 65%; Ki [20]: > 1000 nM; Ki [21]: 2420 nM; Ki [22]: 15 nM
CC(C)[C@@](C)(O)[C@@H]1CN(c2ccc(C(F)(F)F)c(-c3n[nH]c4ncccc34)n2)CCN1 (racemic) | 20 nM | 420 nM | 957 nM | > 1250 nM | –
CC(C)C[C@H]1CN(c2ccc(F)c(-c3n[nH]c4ncccc34)n2)C[C@@H](C)N1 | 5 nM | – | 130 nM | – | –
CC(C)C[C@@H]1CN(c2ccc(F)c(-c3n[nH]c4ncccc34)n2)CCN1 | – | – | 792 nM | – | –
CC(C)C[C@H]1CN(c2ccc(F)c(-c3n[nH]c4ncccc34)n2)C[C@H](C)N1 | > 700 nM | – | > 1250 nM | – | –
